From patent US20230293560A1, “METHOD FOR MODULATING THE BLADDER MICROBIOME TO IMPROVE BLADDER HEALTH” (Kimberly-Clark Worldwide, Inc., priority 2020, published 2023)
Several values for one entry are separate records, joined by “and”; a condition that tells them apart may be missing. Equal entries are not always repeated.

What was measured:
L. jensenii = test: High throughput assay screening of prebiotics; format: cell-based, Lactobacillus jensenii; parameters: key: ++: if growth and fermentation was equal to or greater than the positive control; +: if growth and fermentation was less than the positive control; +: if weak or no growth or fermentation; +^2: Bacteria demonstrated growth but no fermentation on the prebiotic; settings: 2% w/v prebiotic in API 50 CHL media
Protocol: Most of the prebiotic compounds were initially tested in a high throughput assay screening process, described further in the Test Methods section herein, but three prebiotics (as noted in Table 3) were tested using a plate assay screening process as described in the Test Methods section herein. The prebiotics were tested against the commensal bacterial species of Lactobacillus crispatus, Lactobacillus gasseri, and Lactobacillus jensenii and against the pathogenic bacterial species of Streptococcus anginosus and Enterococcus faecalis as shown in Table 2. The bacterial species were taken from different sources, listed as culture collection, bladder, and vagina.
The results of the assay plate screening of the prebiotic compounds of Table 1 against the bacterial species of Table 2 is documented in Table 3 with the results being described by the following legend: • ++ if growth and fermentation was equal to or greater than the positive control • + if growth and fermentation was less than the positive control • […] if weak or no growth or fermentation • NT if not tested Some codes were not tested based on the use or non-use by the bacteria, as a way to efficiently move through the assay plate screening to the competition assay, described below.
• 1. Create a 2% w/v stock of prebiotic or positive control (glucose/dextrose) to be tested in API 50 CHL media (Biomerieux, Marcy-I'Étoile, France). API 50 CHL media contains minimal amounts of carbon for growth, and a bromocresol purple as a pH indicator of fermentation. Filter sterilize media with a […]. Store at 4-6° C. until use. • 2. Add 180 μL of media containing the prebiotic to a sterile, flat bottom 96-well microtiter plate (Corning, Corning, NY). • 3. From a freezer stock subculture the bacteria twice into De Man, Rogosa and Sharpe (MRS) broth (BD Difco, Becton Dickinson, Franklin Lakes, NJ), 37° C., stationary, anaerobic, overnight. • 4. From the last subculture, plate onto an MRS agar plate (Teknova, Hollister, CA) and grow 37° C., stationary, anaerobic, overnight. • 5. Create a bacterial suspension by using a sterile tipped swab to transfer colonies of bacteria into a PBS suspension blank to a 0.5 MacFarland (S. anginosus or E. faecalis) or a 1 MacFarland (Lactobacillus species) from the MRS agar plate. • 6. Enumerate the starting culture. • 7. Inoculate the media alone and media containing the prebiotic or positive control with 20 μL of the bacterial suspension. • 8. Place the plate into a spectrophotometer (Molecular Devices, San Jose, CA) and read the plate every 20 minutes for 24-48 hours. Read wavelengths (OD 430, OD 590, and OD 660). A color change to yellow caused by a drop in pH will be read by an increase in the OD430 value and a decrease in the OD590 value and is indicative of bacterial fermentation. An increase in OD660 values is indicative of an increase in turbidity and bacterial growth.

[1] = test system: ratio of L. crispatus/S. anginosus; test: Therapeutic effect protocol (competition assay); format: cell-based, Lactobacillus crispatus; Streptococcus anginosus; settings: Lc-3 vs Sa-2
Description: As used herein, the term “therapeutic effect” refers to the ability of the compositions and formulations of the present disclosure to stimulate the growth of L. crispatus relative S. anginosus measured according to the therapeutic effect protocol described below. The therapeutic effect can be expressed as a ratio of L. crispatus to S. anginosus and is desirably greater than about 100, more preferably greater than about 500 and more desirably greater than about 1,000.
(§1) Further testing was conducted to put the prebiotic compounds in competition assay testing, as further described in the test methods section herein. In the competition assay testing, each competition involved testing a single prebiotic compound with the commensal bacteria species of L. crispatus, KC18-1173-1, Bladder (“Lc-3”—Table 2) against the pathogenic bacterial species of S. anginosus, KC18-1131-3B, Bladder (“Sa-2”—Table 2).
(§2) • 1. An in house bacterial agar was created based on MRS agar (Kaplan and Hutkins, 2000) where the glucose is substituted for the prebiotic to be tested (either dextran MW ˜6,000, alpha-cyclodextrin, glucomannan, or pectin), bromocresol purple was included as a pH indicator. • 2. Bacteria were enumerated on each agar and color changes were recorded. Method for Competition Assay (Modified from “In Vitro Evaluation of Nutrients that Selectively Confer a Competitive Advantage to Lactobacilli” Vongsa et al, Beneficial Microbes 2016) • 1. Create 2% w/v stock of prebiotic or positive control (glucose/dextrose) as described above. • 2. From a freezer stock subculture the bacteria twice into De Man, Rogosa and Sharpe (MRS) broth (BD Difco, Becton Dickinson, Franklin Lakes, NJ), 37° C., stationary, anaerobic, overnight. • 3. From the last subculture, plate onto an MRS agar plate for L. crispatus KC18-1173-1 or blood agar for S. anginosus KC18-1131-3B, grow 37° C., stationary, anaerobic, overnight. • 4. Create a bacterial suspension by using a sterile tipped swab to transfer colonies of bacteria into a PBS suspension blank to a 2 MacFarland for both species. • 5. Enumerate the starting culture. • 6. Add 9.8 mL of prebiotic media into a 15 mL conical tube. • 7. Add 100 μL of the diluted bacteria to the media, incubate at 37° C., anaerobic, 48 hours. • 8. Harvest 100 μL from the tube containing the prebiotic and plate onto MRS agar and tryptic soy agar (TSA). • 9. Enumerate the bacteria on the MRS agar (both the L. crispatus and the S. anginosus). Small colonies are counted as S. anginosus and large colonies are counted as L. crispatus. • 10. Enumerate the bacteria on the TSA plate. […] Growth of the bacteria in the negative control (CHL media without prebiotic) was subtracted from the growth in the presence of the prebiotic or formulation.
Colonies of L. crispatus and S. anginosus were tested against in the competition method assay test method as described above. The therapeutic effect was calculated by comparing the colony forming units recovered after the competition assay of both L. crispatus and S. anginosus and calculating the ratio of L. crispatus/S. anginosus. A larger number indicates an increase in L. crispatus and/or a decrease in S. anginosus and a smaller number indicates a decrease in L. crispatus and/or an increase in S. anginosus.

[2] = test system: L. crispatus, KC18-1173-1, Bladder (Lc-3); test: Competition assay, L. crispatus recovered; format: cell-based, Lactobacillus crispatus; settings: Table 6, prebiotic 2%, one line per replicate
Protocol: as §1, §2

L. crispatus = test: High throughput assay screening of prebiotics; format: cell-based, Lactobacillus crispatus; parameters: key: ++: if growth and fermentation was equal to or greater than the positive control; +: if growth and fermentation was less than the positive control; +: if weak or no growth or fermentation; +^2: Bacteria demonstrated growth but no fermentation on the prebiotic; settings: 2% w/v prebiotic in API 50 CHL media; for growth and fermentation vs positive control, Lc-4: L. crispatus KC18-1174-1, Vagina
Summary of the method: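 Prebiotic or glucose/dextrose positive control in API 50 CHL minimal-carbon medium with bromocresol purple, inoculated with bacterial suspension (0.5 McFarland streptococci/enterococci, 1 McFarland lactobacilli). Read every 20 min for 24-48 h; OD430 rise/OD590 fall marks fermentation, OD660 rise marks growth, scored versus positive control.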

Row | SMILES | growth and fermentation vs positive control, Lj-2 (L. jensenii; L. jensenii KC17-4347-1, Bladder) | Therapeutic Effect (ratio of L. crispatus/S. anginosus) ([1]; Table 6, prebiotic 2%) | Lc-3 MRS Δ ([2]; change vs start, background growth in CHL media subtracted, MRS agar) | Lc-3 MRS end ([2]; competition Sa-2 vs Lc-3, 48 hours, enumerated on MRS agar) | growth and fermentation vs positive control, Lc-2 (L. crispatus; L. crispatus KC16-7134-3C, Bladder) | growth and fermentation vs positive control, Lc-4 (L. crispatus) | growth and fermentation vs positive control, Lj-1 (L. jensenii; L. jensenii KC17-4297-18, Bladder) | outcome of the bacterial competition assay, in words ([1]; Tables 6 and 7) | growth and fermentation vs positive control, Lc-3 (L. crispatus; L. crispatus KC18-1173-1, Bladder)
1 | CO[C@H]1O[C@H](CO)[C@@H](O)[C@H](O)[C@H]1O [Alpha-Methyl-D-Glucoside] | + | 1.21E−01 (2×) and 1.74E−01 (2×) | 1.39 Log CFU/mL and 0.70 Log CFU/mL | 6.52 Log CFU/mL and 6.78 Log CFU/mL | + | + |  |  | 
2 | OC[C@H]1O[C@H](OC[C@H]2OC(O)(CO)[C@@H](O)[C@@H]2O)[C@H](O)[C@@H](O)[C@@H]1O (stereo partly shown) [Palatinose (isomaltulose), isomaltulose] |  |  |  |  |  | ++ | + | supported the growth of Lactobacillus crispatus over Streptococcus anginosus | ++
